Source: patent US20180147296A1, “CARBON MATERIAL DELIVERY SYSTEMS AND METHODS” (The Research Foundation for The State University of New York, priority 2015, published 2018)

Experiments:
[1] = test system: HeLa cells; test: PrestoBlue viability assay, C6 ceramide; type: cell-based; conditions: 8 μg/mL of C6; 24 hrs
Procedure: HeLa cells were seeded in flat-bottomed 96 well plates at a density of 5000 cells/well and were allowed to adhere overnight. Ceramide-loaded nanoparticles (O-GNRs or GNPs) were added to each well at various concentrations ranging from 10-100 μg/mL of nanoparticles. In order to ensure that any observed decrease in viability compared to untreated cells could not be attributed to the loading process, the loading process was repeated with only nanoparticles and incubated them with HeLa cells at the highest concentration used (100 μg/mL). After 24 hours, the media was aspirated and each well was rinsed twice with PBS. […] After 2 hours, the plates were removed and the fluorescence intensity of each well was measured using a Molecular Devices SpectraMax M2e (Sunnyvale, Calif., USA) with an excitation wavelength of 560 nm and an emission wavelength of 590 nm. […] The cell viability is expressed as a percent of the […] with the formula: […]
where Itest is the fluorescence intensity of cells exposed to ceramide-loaded nanoparticles, Icontrol is the fluorescence intensity of […], and Iblank is the fluorescence intensity from empty wells.
In a separate experiment, the efficacy of ceramide-loaded O-GNRs were compared to C6 ceramide without nanoparticles placed directly in the media. […] Viability was assessed with PrestoBlue using identical methods as described above.

[2] = test system: HeLa cells; test: Confocal microscopy of C12 NBD ceramide; type: cell-based; conditions: 2 hours
Procedure: C12 NBD ceramide was loaded onto O-GNRs using the same procedure as C24 and C16 ceramide. HeLa cells were seeded in glass-inset confocal dishes at a density of 7.5×10^4 cells/mL with 2 mL per plate and allowed to adhere overnight. Cells were treated with either 5 μM fluorescent C12 NBD ceramide or an equivalent amount of fluorescent C12 NBD ceramide loaded on O-GNRs for 2 hours and imaged using a Leica TCS SP8 Laser Scanning Confocal Microscope System (Buffalo Grove, Ill., USA). Cells were pretreated with inhibitors of O-GNR uptake Dynasore and Gefitinib, endosome disruptor Desipramine, or no treatment for 30 minutes prior to the addition of ceramide or ceramide-loaded O-GNRs.

[3] = PrestoBlue assay, separate cultures; type: cell-based; conditions: human, separate culture, 80 μM Luc free or loaded, read-out: viability compared to untreated controls
Procedure: (§1) Luc alone (80 μM), 80 μM Luc loaded O-GNR-PEG-DSPE and O-GNR-PEG-DSPE (same weight as used for Luc loading) were incubated with CMV/U251, A1-5/CMV/U251, MCF-7 and CG-4 cells (5×10^3 cells per well in 96 well plates) for 24 hours. Following the incubation period the media was removed and the cells were washed twice with 1×PBS. 100 μL of fresh media was added to each well, as well as 10 μL of PrestoBlue® to each well, and incubated for 4 hours. Fluorescence was measured by Cytofluor fluorescence multiwell plate reader (Infinite M200, Tecan Group Ltd, NC, USA) with excitation at 530 nm, and emission at 580 nm.
(§2) The cell viability in terms of % of unexposed cells is expressed as the percentage of (Ftest−Fblank)/(Fcontrol−Fblank), where Ftest is the fluorescence of the cells exposed to nanoribbon-drug sample, Fcontrol is the fluorescence of the untreated sample and Fblank is the fluorescence of the wells without any cells. The PrestoBlue® reading for all lysed cells was also taken for comparison.

[4] = test system: MCF-7; test: PrestoBlue assay, separate cultures; type: cell-based; conditions: 80 μM Luc free or loaded; 24 hours
Procedure: as §1, §2

[5] = test system: CG-4; test: PrestoBlue assay, separate cultures; type: cell-based, rat; conditions: 80 μM Luc free or loaded; 24 hours
Procedure: as §1, §2

[6] = PrestoBlue assay, MCF-7-CMV/U251 co-culture; type: cell-based; conditions: human, read-out: viability compared to untreated controls
Procedure: (§3) MCF-7, CG-4 and CMV/U251 were seeded separately on 12 mm round glass coverslips (Fisherbrand, Fisher Scientific, PA) in 100 mm plates at a density of 2.2×10^6 cells and allowed to grow overnight. For the two separate co-culture condition experiments, one coverslip from each cell line was placed in 6 well plates, for a total of two coverslips per well. These cells were then incubated with Luc alone (80 μM), 80 μM Luc loaded O-GNR-PEG-DSPE or O-GNR-PEG-DSPE for 24 h. After the incubation period, the media was removed and the cells were washed twice with 1×PBS. Each coverslip was then transferred to its own well in 6 well plates containing 3 mL of media and 300 μL of PrestoBlue® reagent. After incubating for 4 h, the fluorescence intensity was recorded using the procedure described above.

[7] = PrestoBlue assay, CG-4-CMV/U251 co-culture; type: cell-based; conditions: read-out: viability compared to untreated controls
Procedure: as §3

[8] = test system: A1-5/CMV/U251; test: Annexin V/PI staining, flow cytometry; type: cell-based; conditions: 4 hours; for % AV+ / % PI + AV+ / % PI+ / % PI−AV−: A1-5/CMV/U251, free or on GONR
Procedure: (§4) Luc alone and Luc-loaded O-GNR-PEG-DSPEs at different concentrations (5-80 μM) were incubated with CMV/U251, A1-5/CMV/U251 and CG-4 (5×10^5 cells/3 mL in 6-well plates) for 4 hours. Unexposed cells were used as control. Unloaded O-GNR-PEG-DSPEs in amounts equivalent to the loaded nanoparticles were also exposed to all the cell types as delivery agent control. The viability of the cells was analyzed by flow cytometry after Annexin V/PI staining using FACS Calibur Cell Sorter (BD Biosciences, San Jose, Calif.).
(§5) Annexin V (AV) is a 35 KDa phospholipid binding protein with an affinity for phosphotidyl serine. Early apoptotic cells show exposed phosphotidyl serine on their cell surface while it is still intact. PI on the other hand can only enter dead cells or early necrotic cells with compromised membranes. Thus, in flow cytometry AV+/PI+ represents dead cells, AV+/PI− represents cells in early apoptosis, AV−/PI+ represents dead or necrotic cells with compromised membranes, and AV−/PI− represents healthy living cells. […] However, 37% of cells were still living after 4 hours of exposure to O-GNR-PEG-DSPE loaded with 80 μM Luc.

[9] = test system: CMV/U251; test: Annexin V/PI staining, flow cytometry; type: cell-based; conditions: 4 hours; for % AV+ / % PI + AV+ / % PI+ / % PI−AV−: CMV/U251, free or on GONR
Procedure: as §4, §5

[10] = test system: HeLa cells; test: Live-cell confocal microscopy of NBD-ceramide; type: cell-based; conditions: 40 μg/mL loaded O-GNRs or equal NBD-ceramide in ethanol; one hour
Procedure: In order to visualize the uptake of ceramide-loaded nanoparticles into cells, we loaded O-GNRs with C6 ceramide conjugated to 4-Chloro-7-nitrobenzofurazan (NBD-ceramide). HeLa cells were seeded in glass-inset confocal dishes at a density of 7.5×10^4 cells/mL with 2 mL per plate and allowed to adhere overnight. The following day, cells were placed in a LiveCell™ stage top incubation platform (Pathology Devices Inc., Westminster, Md., USA) and NBD-ceramide-loaded O-GNRs were added to these plates at a concentration of 40 μg/mL. As a control, cells were also incubated with an equivalent amount of NBD-ceramide in ethanol in a separate experiment. The cells were then imaged using a Leica TCS SP8 Laser Scanning Confocal Microscope System (Buffalo Grove, Ill., USA) over a period of one hour at two minute intervals.

CCCCCCCCCCCCC/C=C/[C@@H](O)[C@H](CO)NC(=O)CCCCC [C6 ceramide, C6-Ceramide]
HeLa cell viability greater than lysed cells [1]: 55.8%

CCCCCCCCCCCCC/C=C/[C@@H](O)[C@H](CO)NC(=O)CCCCCCCCCCCNc1ccc([N+](=O)[O-])c2nonc12 [C12 NBD ceramide]
fluorescence compared with cells not treated with inhibitor ([2]; pretreated with Dynasore 30 minutes): no difference | fluorescence compared with cells not treated with inhibitor ([2]; pretreated with Gefitinib 30 minutes): no difference | endosome localization compared with cells not treated with desipramine ([2]; pretreated with desipramine 30 minutes): significantly less endosome localization

CCN(CC)CCNc1ccc(C)c2sc3ccccc3c(=O)c12 [Lucanthone]
viability at 24 h, 80 μM ([3]; A1-5/CMV/U251 cells): ~30% | viability at 24 h, 80 μM ([3]; CMV/U251 cells): ~40% | toxicity (PrestoBlue) [4]: toxic | toxicity (PrestoBlue) [5]: toxic | viability at 24 h, 80 μM ([6]; CMV/U251 cells on coverslips, co-cultured with MCF-7 cells, CMV/U251 in co-culture with MCF-7, 80 μM Luc free or loaded, or carrier alone): ~28% | viability at 24 h, 80 μM ([6]; MCF-7 cells on coverslips, co-cultured with CMV/U251 cells, MCF-7 in co-culture with CMV/U251, 80 μM Luc free or loaded, or carrier alone): ~36% | viability at 24 h, 80 μM ([7]; human, CMV/U251 cells on coverslips, co-cultured with CG-4 cells, CMV/U251 in co-culture with CG-4, 80 μM Luc free or loaded): ~15% | viability at 24 h, 80 μM ([7]; rat, CG-4 cells on coverslips, co-cultured with CMV/U251 cells, CG-4 in co-culture with CMV/U251, 80 μM Luc free or loaded): ~30% | cell death ([8]; 40 μM free Luc): 100% | % AV+ ([8]; 5 μM lucanthone): 0% | % PI + AV+ ([8]; 5 μM lucanthone): 0% | % PI+ ([8]; 5 μM lucanthone): 76% | % PI−AV− ([8]; 5 μM lucanthone): 24% | % AV+ ([8]; 10 μM lucanthone): 0% | % PI + AV+ ([8]; 10 μM lucanthone): 0% | % PI+ ([8]; 10 μM lucanthone): 92% | % PI−AV− ([8]; 10 μM lucanthone): 8% | % AV+ ([8]; 20 μM lucanthone): 0% | % PI + AV+ ([8]; 20 μM lucanthone): 0% | % PI+ ([8]; 20 μM lucanthone): 98% | % PI−AV− ([8]; 20 μM lucanthone): 2% | % AV+ ([8]; 40 μM lucanthone): 0% | % PI + AV+ ([8]; 40 μM lucanthone): 0% | % PI+ ([8]; 40 μM lucanthone): 100% | % PI−AV− ([8]; 40 μM lucanthone): 0% | % AV+ ([8]; 80 μM lucanthone): 0% | % PI + AV+ ([8]; 80 μM lucanthone): 0% | % PI+ ([8]; 80 μM lucanthone): 100% | % PI−AV− ([8]; 80 μM lucanthone): 0% | cell death ([9]; 80 μM free Luc): 100% | % AV+ ([9]; 5 μM lucanthone): 0% | % PI + AV+ ([9]; 5 μM lucanthone): 17% | % PI+ ([9]; 5 μM lucanthone): 78% | % PI−AV− ([9]; 5 μM lucanthone): 20% | % AV+ ([9]; 10 μM lucanthone): 0% | % PI + AV+ ([9]; 10 μM lucanthone): 0% | % PI+ ([9]; 10 μM lucanthone): 95% | % PI−AV− ([9]; 10 μM lucanthone): 5% | % AV+ ([9]; 20 μM lucanthone): 0% | % PI + AV+ ([9]; 20 μM lucanthone): 0% | % PI+ ([9]; 20 μM lucanthone): 97% | % PI−AV− ([9]; 20 μM lucanthone): 3% | % AV+ ([9]; 40 μM lucanthone): 0% | % PI + AV+ ([9]; 40 μM lucanthone): 0% | % PI+ ([9]; 40 μM lucanthone): 97% | % PI−AV− ([9]; 40 μM lucanthone): 3% | % AV+ ([9]; 80 μM lucanthone): 5% | % PI + AV+ ([9]; 80 μM lucanthone): 0% | % PI+ ([9]; 80 μM lucanthone): 95% | % PI−AV− ([9]; 80 μM lucanthone): 0% | % PI−AV− ([9]; 80 μM lucanthone, listed as Luc): no healthy living cells remaining | nature of cell death (dead cells PI+/AV−) ([9]; CMV/U251 and A1-5/CMV/U251, 5-80 μM): necrotic

CCCCCCCCCCCCC/C=C/C(O)C(CO)NC(=O)CCCCCNc1ccc([N+](=O)[O-])c2nonc12 [NBD ceramide, C6 N-[6-[(7-nitro-2-1,3-benzoxadiazol-4-yl)amino]hexanoyl]-D-erythro-sphingosine]
uptake of NBD ceramide into cells (fluorescence) [10]: rapid uptake
